According to paper PMC6146376, “Rational design of new cyclic analogues of the antimicrobial lipopeptide tridecaptin A1” (Chemical Communications (Cambridge, England), 2018):
Non-standard residues stand in square brackets, D forms with d. Residues, ends and D or L forms follow the SMILES beside them. *: point of attachment. d(aIle) = CC[C@H](C)[C@@H](N)C(=O)O; dAllylGly = C=CC[C@@H](N)C(=O)O; AllylGly = C=CC[C@H](N)C(=O)O; dDab = NCC[C@@H](N)C(=O)O; Octanoyl = CCCCCCCC(=O)*; Dab = NCC[C@H](N)C(=O)O

How the values were obtained:
[1] = test system: Escherichia coli NCTC 12241; type: cell-based; conditions: NCTC 12241, 18 h
Experimental: (§1) [formula] Scheme 1 Synthesis of novel cyclic analogues of TriA1. MIC = minimum inhibitory concentration. Determined by microbroth dilutions assays and experiments run in duplicate. Values are shown to two significant figures and reported in μg mL^–1. ^a Strain NCTC 12241. ^b Strain NCTC 10788. ^c Strain NCTC 9633. ^d Strain NCTC 13304. ^e Strain NCTC 5920. […]
(§2) VIII. Antimicrobial testing
(§3) All minimum inhibitory concentrations (MICs) were determined according to Clinical and Standards Laboratory Institute (CLSI) guidelines.5 Briefly, peptides were dissolved in Muller-Hinton Broth (MHB) and serial dilutions made across a 96 well plate. Each well was inoculated with a suspension of the required bacterial strain to reach a final inoculum of 5 x 10^5 colony forming units per mL. The MIC was taken as the lowest concentration with no visible growth after 18 hours. […]

[2] = test system: Staphylococcus aureus NCTC 10788; type: cell-based; conditions: NCTC 10788, 18 h
Experimental: as §1, §2, §3

[3] = type: physicochemical; conditions: pH 7.4
Experimental: The D-stereoselective peptidase TriF is a membrane associated protein found in Paenibacillus polymyxa CICC 10580.[7] TriFpep, the soluble periplasmic peptidase domain of TriF, which lacks the signal peptide and four hydrophobic transmembrane helices, was expressed in E. coli BL21 cells as a C-terminal His6-tag protein construct.[7] TriA1 analogues 1–9 were incubated with TriFpep at 37 °C for 12 h and the reaction mixtures analysed by UPLC-MS. […] We were unable to test the stability of Oct-cTriA1(biphenyl) (9) as it is insoluble in the TriF assay mixture. […] These analogues therefore represent a new scaffold of macrocyclic peptides with selective activity against Gram-negative bacteria. […]
All minimum inhibitory concentrations (MICs) were determined according to Clinical and Standards Laboratory Institute (CLSI) guidelines.5 Briefly, peptides were dissolved in Muller-Hinton Broth (MHB) and serial dilutions made across a 96 well plate. […]
TriFpep was expressed and purified as previously described.3 An assay mixture (total volume 30 μL in 25% phosphate-buffered saline (PBS) buffer, pH 7.4) containing TriFpep (2.0 μM) and the desired peptide (added as a DMSO solution to give a final concentration of 20 μM) was prepared and incubated for 12 h at 37 °C. […] The samples were centrifuged at 15,000 rpm for 10 min and 2 μL of the supernatant was analyzed by UPLC–MS system as previously described.3

[4] = test system: bacterial indicator strains; assay: Antimicrobial activity, strain not named in the sentence (microbroth dilution); type: cell-based; conditions: highest concentration tested 50 μg mL^–1
Experimental: as §1, §2, §3

| Structure (SMILES) | MIC E. coli [1] [μg mL^–1] | MIC S. aureus [2] [μg mL^–1] | solubility in the TriF assay mixture [3] | antimicrobial activity (MIC bound, strain not named) [4] [μg mL^–1] |
| --- | --- | --- | --- | --- |
| C=CCSC[C@H](NC(=O)[C@@H](CCN)NC(=O)[C@H](CCN)NC(=O)[C@H](CO)NC(=O)[C@@H](CSCC=C)NC(=O)[C@@H](CO)NC(=O)CNC(=O)[C@@H](CCN)NC(=O)[C@H](NC(=O)CCCCCCC)C(C)C)C(=O)N[C@@H](CCC(=O)O)C(=O)N[C@H](C(=O)N[C@@H](C(=O)N[C@@H](C)C(=O)O)[C@@H](C)CC)C(C)C [Peptide 3, Oct-TriA1-(5-D-Sac, 9-Sac)] | >50 | >50 | – | – |
| CCCCCCCC(=O)N[C@@H](C(=O)N[C@H](CCN)C(=O)NCC(=O)N[C@H](CO)C(=O)N[C@H](CS)C(=O)N[C@@H](CO)C(=O)N[C@@H](CCN)C(=O)N[C@H](CCN)C(=O)N[C@@H](CS)C(=O)N[C@@H](CCC(=O)O)C(=O)N[C@H](C(=O)N[C@@H](C(=O)N[C@@H](C)C(=O)O)[C@@H](C)CC)C(C)C)C(C)C [Peptide 4, Oct-TriA1-(5-D-Cys, 9-Cys)] | >50 | >50 | – | – |
| CCCCCCCC(=O)N[C@@H](C(=O)N[C@H](CCN)C(=O)NCC(=O)N[C@H](CO)C(=O)N[C@H](Cc1c[nH]c2ccccc12)C(=O)N[C@@H](CO)C(=O)N[C@@H](CCN)C(=O)N[C@H](CCN)C(=O)N[C@@H](Cc1ccccc1)C(=O)N[C@@H](CCC(=O)O)C(=O)N[C@H](C(=O)N[C@@H](C(=O)N[C@@H](C)C(=O)O)[C@@H](C)CC)C(C)C)C(C)C [Peptide 1, Oct-TriA1] | 0.39 | 25 | – | – |
| C=CC[C@H](NC(=O)[C@@H](CCN)NC(=O)[C@H](CCN)NC(=O)[C@H](CO)NC(=O)[C@@H](CC=C)NC(=O)[C@@H](CO)NC(=O)CNC(=O)[C@@H](CCN)NC(=O)[C@H](NC(=O)CCCCCCC)C(C)C)C(=O)N[C@@H](CCC(=O)O)C(=O)N[C@H](C(=O)N[C@@H](C(=O)N[C@@H](C)C(=O)O)[C@@H](C)CC)C(C)C [Peptide 2, Oct-TriA1-(5-D-Agl, 9-Agl)] (Octanoyl-[dV][dDab]G[dS][dAllylGly]S[Dab][dDab][AllylGly]EV[d(aIle)]A-OH) | >50 | >50 | – | – |
| CCCCCCCC(=O)N[C@@H](C(=O)N[C@H](CCN)C(=O)NCC(=O)N[C@H](CO)C(=O)N[C@@H]1CSCc2ccc(cc2)-c2ccc(cc2)CSC[C@@H](C(=O)N[C@@H](CCC(=O)O)C(=O)N[C@H](C(=O)N[C@@H](C(=O)N[C@@H](C)C(=O)O)[C@@H](C)CC)C(C)C)NC(=O)[C@@H](CCN)NC(=O)[C@H](CCN)NC(=O)[C@H](CO)NC1=O)C(C)C [Peptide 9, Oct-cTriA1 (biphenyl)] | – | – | insoluble | > 50 |
